Among the data in paper PMC7251074, “Identification of Anti-tuberculosis Compounds From Aurone Analogs” (Frontiers in Microbiology, 2020) are Inhibitory rate values, retold here.

The structures appear in SMILES notation.

This experiment relates to tdTomato-expressing Mtb CDC1551 strain. Nature of the experiment: microbe, parasite or virus in culture. The following applies: aurones at 100 μM, 3 days co-incubation, tdTomato fluorescence intensity. Type of experiment: cell-based, Mycobacterium tuberculosis.
As for `CC(=O)N1/C(=C\c2ccccc2O)C(=O)c2ccccc21` [AA3A], the Inhibitory rate came out at 41.32 ± 9.99%. In the case of `CC(=O)N1/C(=C\c2ccc(CO)o2)C(=O)c2ccccc21` [AA4A], the Inhibitory rate was 66.18 ± 0.98%. On to `CC(=O)N1/C(=C\c2ccc[nH]2)C(=O)c2ccccc21` [AA5A], for which the Inhibitory rate is 69.93 ± 10.09 %.
